The values below come from patent publication US20230121179A1, “SKIN BARRIER FUNCTION ENHANCER” (Shiseido Company, Ltd., priority 2020, published 2023).

Where “and” joins values, the source holds several entries; their conditions need not be identical. Equal entries are not always repeated.

For series [1], the system named is INV. Description: Microarray gene expression in keratinocytes after UV irradiation through wavelength conversion substance. Format: cell-based. Further details: key: O represents the gene whose expression is significantly changed; X represents the gene whose expression is not changed. The note with it: Normal Human Epidermal Keratinocytes, UV 100 mJ/cm^2 through wavelength conversion substance solution, no direct contact, 24 h incubation. From the text: (§1) Lumate G is a zinc oxide phosphor obtained by doping ZnO with a sulfur-containing compound and then firing as described in International Patent Publication No. 2018/004006, the absorption spectrum having a peak wavelength at 365 nm and the emission spectrum having a peak wavelength at 510 nm. • (4) Magnesium titanate phosphor Lumate R by Sakai Chemical Industry Co., Ltd. was used. Lumate R is a magnesium titanate phosphor obtained by doping MgTiO3 with manganese, the absorption spectrum having a peak wavelength at 365 nm and the emission spectrum having peak wavelengths in the range of 660 to 680 nm. • The wavelength conversion substances of (1) and (2) were dissolved in water to prepare solutions at concentrations of 1% and 5%. • The wavelength conversion substances of (3) and (4) were dispersed in alcohol to prepare 5% and 10% dispersions.
(§2) Cell samples were prepared in the following manner. • 1. Human human skin keratinocytes (Normal Human Epidermal Keratinocytes, PromoCell) were used. A cell suspension (1 mL) stored with liquid nitrogen was placed in a hot water bath (37° C.) and thawed until small ice pellets remained, and then diluted with 9 mL of warm KGM medium. • 2. The diluted suspension was gently mixed and transferred to a T75 flask, and incubated overnight at 37° C. • 3. On the following day, the medium was exchanged with 10 mL of fresh medium. • 4. The medium was periodically exchanged (once every 2 - 3 days), while continuing growth of the cells. During this time, a microscope was used to observe the cells and to confirm that the cells had proliferated with the proper form. • 5. Once the cells reached approximately 80% confluence, they were subcultured. • 6. Subculturing of the cells was carried out by rinsing and aspirating once in 10 mL of warm PBS. • 7. 5 mL of warm trypsin was added to the T75 flask to cover the bottom of the flask with the trypsin solution, and the mixture was aspirated after standing for 1 minute at room temperature. • 8. The flask was set in an oven at 37° C. for 5 minutes (maximum) for keratinocytes. A microscope was used to observe the cells, confirming that they were small and elliptical. • 9. The sides of the T75 flask were then lightly tapped to free the cells. A microscope was used to observe the cells and confirm that they were freely moving. • 10. The keratinocytes were resuspended in 5 mL of warm trypsin neutralizing solution, transferred to a sterilized 50 mL Falcon tube. The flask was further rinsed with 5 mL of warm FGM and added to the Falcon tube, to ensure transfer of all of the cells. • 11.. The cells were centrifuged at […] for 5 minutes (4° C.), and the supernatant was carefully removed while avoiding disturbing the cell pellet. • 12. The keratinocytes were resuspended in KGM at a concentration of 2 × 10^4 cells/well (500 µL), and plated in collagen coated glass bottom 4-well chamber slide. • 13. The medium was replaced every two or three days, and cells were proliferated until they reached 60 to 70% confluence (differing for the type of experiment). • 14. At 24 hours before irradiation, the medium was changed to non-supplemented medium.
(§3) • 1. At least 30 minutes prior to irradiation, the power source of a solar simulator was activated to warm up the lamp. The solar simulator used was a UG11 filter. A UG11 filter is a filter that allows passage of UVB alone while cutting light of other wavelengths. […] The temperature control plate was turned on and set to 33° C. • 3. The cells prepared in Experiment 1-2 were rinsed once with warm PBS. • 4. A 0.5 mL portion of warmed Martinez solution (145 mM NaCl, 5.5 mM KC1, 1.2 mM MgCl2·6H2O, 1.2 mM NaH2PO4·2H2O, 7.5 mM HEPES, 1 mM CaCl2 and 10 mM D-glucose) was added to each well. • 5. […] The irradiation was carried out to a total radiation dose of 100 mJ/cm^2. […]

Series [2] has as its system CASP14. The series is described as above. Format: cell-based. Further details: key: O represents the gene whose expression is significantly changed; X represents the gene whose expression is not changed. The following applies: Normal Human Epidermal Keratinocytes, UV 100 mJ/cm^2 through wavelength conversion substance solution, no direct contact, 24 h incubation.
Text: as §1, §2, §3

Series [3] concerns SMPD1. The series is described as above. The following applies: Normal Human Epidermal Keratinocytes, UV 100 mJ/cm^2 through wavelength conversion substance solution, no direct contact, 24 h incubation. Also on record: key: O represents the gene whose expression is significantly changed; X represents the gene whose expression is not changed. The class given is cell-based.
Text: as §1, §2, §3

Series [4] has as its system CDSN. The description is as above. The note with it: Normal Human Epidermal Keratinocytes, UV 100 mJ/cm^2 through wavelength conversion substance solution, no direct contact, 24 h incubation. Further details: key: O represents the gene whose expression is significantly changed; X represents the gene whose expression is not changed. Format: cell-based.
Text: as §1, §2, §3

For series [5], the system named is TGase1. Described as above. Format: cell-based. Also on record: key: O represents the gene whose expression is significantly changed; X represents the gene whose expression is not changed. The note with it: Normal Human Epidermal Keratinocytes, UV 100 mJ/cm^2 through wavelength conversion substance solution, no direct contact, 24 h incubation.
Text: as §1, §2, §3

Series [6] deals with LOR. The description is as above. The class given is cell-based. Further details: key: O represents the gene whose expression is significantly changed; X represents the gene whose expression is not changed. The following applies: Normal Human Epidermal Keratinocytes, UV 100 mJ/cm^2 through wavelength conversion substance solution, no direct contact, 24 h incubation.
Text: as §1, §2, §3

Series [7] deals with FLG. Described as above. Format: cell-based. Further details: key: O represents the gene whose expression is significantly changed; X represents the gene whose expression is not changed. The note with it: Normal Human Epidermal Keratinocytes, UV 100 mJ/cm^2 through wavelength conversion substance solution, no direct contact, 24 h incubation.
Text: as §1, §2, §3

The nature of series [8]: Absorption and emission spectra of wavelength conversion substances. Format: physicochemical.
Text: as §1

In the case of C-phycocyanin [Lina Blue], the “INV gene expression change” value in series [1] is “O”. For the same compound, in series [2], the “CASP14 gene expression change” value is listed as “O”. For the same compound, in series [3], the “SMPD1 gene expression change” value is “O”. Further, the “CDSN gene expression change” value in series [4] was “O”. Moreover, in series [5], the “TGase1 gene expression change” value is given as “O”. The “LOR gene expression change” value in series [6] was “O”. Also, in series [7], the “FLG gene expression change” value is reported as “O”. Moreover, in series [8], the “absorption spectrum peak wavelength” value is 350 nm; the “emission spectrum peak wavelength” value is 640 nm and 700 nm.

Consider `Cc1cc2nc3c(=O)[nH]c(=O)nc-3n(C[C@H](O)[C@H](O)[C@H](O)CO)c2cc1C` [Vitamin B2, Riboflavin, reference compound], for which the “INV gene expression change” value in series [1] was “O”. The “CASP14 gene expression change” value in series [2] was “O”. The “SMPD1 gene expression change” value in series [3] is “O”. Moreover, the “CDSN gene expression change” value in series [4] was “O”. For the same compound, the “TGase1 gene expression change” value in series [5] is reported as “O”. In addition, the “LOR gene expression change” value in series [6] is reported as “X”. Further, the “FLG gene expression change” value in series [7] was “O”. In addition, in series [8], the “absorption spectrum peak wavelength” value stood at 445 nm and the “emission spectrum peak wavelength” value is listed as 530 nm.
